Data as given in US3994974A, “α-Aminomethylbenzyl alcohol derivatives” (Yamanouchi Pharmaceutical Co., Ltd., priority 1972, dated 1976).
In brackets after ≈: the same amount, converted by molar mass. Counter-ions that a name gives are not always drawn. Like-named read-outs stand apart in the source and are kept apart here.

Columns and labels:
[1] = tested on: isolated bronchial smooth muscle; test: Activity on isolated bronchial smooth muscle (in vitro test), histamine dihydrochloride as spasmogen (Anti-histamine); assay type: cell-based, guinea pig; settings: for EC50: Cavia porcellus, read-out: Anti-histamine ED50; for Anti-histamine relative activity: relative to control E (trimetoquinol) = 1.0, ED50 ratio, smaller = more potent
Method: (§1) Activity on isolated bronchial smooth muscle (in vitro test)
(§2) The trachea of a guinea pig was cut spirally and the isolated bronchial preparation was suspended in Magnus bath. Tyrode's solution was filled in a 50 ml bath and kept at 37° C. Then, 10-^5 g/ml of histamine dihydrochloride or methacholine chloride was added to a bath as spasmogen. After the contraction of the trachea reached a plateau, a test substance shown in the below-showing table was added to the preparation, cumulatively. The concentration producing 50% relaxation of the contracted bronchial muscle was designated as ED50.

[2] = tested on: isolated bronchial smooth muscle; test: Activity on isolated bronchial smooth muscle (in vitro test), methacholine chloride as spasmogen (Anti-methacholine Chloride); assay type: cell-based, guinea pig; settings: for EC50: Cavia porcellus, read-out: Anti-methacholine Chloride ED50; for Anti-methacholine Chloride relative activity: relative to control E (trimetoquinol) = 1.0, ED50 ratio, smaller = more potent
Method: as §1, §2

Histamine-asthma = test: Activity on experimental asthma (in vivo test), Histamine-asthma; parameters: species or system guinea pig; settings: Cavia porcellus, sc, read-out: Histamine-asthma ED50
Method: (§3) Activity on experimental asthma (in vivo test)
(§4) A guinea pig was placed in a 11 liter glass chamber and exposed to the spasmogen by means of a nebulizer. […] Drugs were administered subcutaneously to animals 30 minutes before application of the spasmogen. […] ED50 was calculated by the method of Litchfield-Wilcoxon [J. Pharmacol. Exptl. Therap, 96, 99-113 (1949)].

[3] = tested on: Methacholine chloride-asthma; test: Activity on experimental asthma (in vivo test), Methacholine chloride-asthma; parameters: species or system guinea pig; settings: Cavia porcellus, sc, read-out: Methacholine chloride-asthma Ed50
Method: as §3, §4

β1 = biological target: T1, β1 (Canis lupus familiaris, UniProt P79148); test: β1-action: heart rate response (ΔHR) in anesthetized dogs; assay type: in vivo, Mongrel dogs; settings: intravenous
T1 construct: Mongrel dogs of either sex; from tissue; host or cells: heart of the living anesthetized mongrel dog (heart rate)
T1 sequence (P79148 whole entry): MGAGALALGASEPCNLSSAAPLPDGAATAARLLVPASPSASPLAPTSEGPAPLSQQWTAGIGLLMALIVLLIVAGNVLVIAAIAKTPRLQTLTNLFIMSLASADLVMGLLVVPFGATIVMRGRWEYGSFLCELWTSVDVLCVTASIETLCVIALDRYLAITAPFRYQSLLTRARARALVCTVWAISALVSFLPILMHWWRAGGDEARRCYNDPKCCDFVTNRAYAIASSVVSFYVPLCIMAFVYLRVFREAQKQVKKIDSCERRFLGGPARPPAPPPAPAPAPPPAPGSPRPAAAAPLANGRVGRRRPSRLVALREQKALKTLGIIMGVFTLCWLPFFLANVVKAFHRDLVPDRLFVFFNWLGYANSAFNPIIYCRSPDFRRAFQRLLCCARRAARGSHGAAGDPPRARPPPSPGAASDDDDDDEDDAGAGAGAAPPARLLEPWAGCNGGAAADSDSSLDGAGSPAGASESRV
Method: Mongrel dogs of either sex weighing about 10 Kg were anesthetized with pentobarbital Na, 30 mg/Kg intravenously. Arterial blood pressure was measured from a cannula in the right femoral artery and the pulse pressure used to trigger a ratemeter for a record of heart rate. (β1.action). Intravenous injections were made through a cannula in a femoral vein, and ED50bpm values were obtained from the does-response (ΔHR) curves. ED50bpm vs. ED50 ratios mean its own selectivity.

β1 /β2 = test: Selectivity (ratio of β1/β2), ED50bpm vs. ED50 in anesthetized dogs; assay type: in vivo, Mongrel dogs
β2 = biological target: T2, β2 (Canis lupus familiaris, UniProt P54833); test: β2-action: inhibition of histamine-induced increase in bronchial resistance in anesthetized dogs; assay type: in vivo, Mongrel dogs; settings: dog, intravenous, cumulative, 5 minutes before histamine 10 μg/Kg i.v.
T2 construct: Mongrel dogs of either sex; from tissue; host or cells: airways of the living anesthetized mongrel dog (bronchial resistance)
T2 sequence (P54833 whole entry): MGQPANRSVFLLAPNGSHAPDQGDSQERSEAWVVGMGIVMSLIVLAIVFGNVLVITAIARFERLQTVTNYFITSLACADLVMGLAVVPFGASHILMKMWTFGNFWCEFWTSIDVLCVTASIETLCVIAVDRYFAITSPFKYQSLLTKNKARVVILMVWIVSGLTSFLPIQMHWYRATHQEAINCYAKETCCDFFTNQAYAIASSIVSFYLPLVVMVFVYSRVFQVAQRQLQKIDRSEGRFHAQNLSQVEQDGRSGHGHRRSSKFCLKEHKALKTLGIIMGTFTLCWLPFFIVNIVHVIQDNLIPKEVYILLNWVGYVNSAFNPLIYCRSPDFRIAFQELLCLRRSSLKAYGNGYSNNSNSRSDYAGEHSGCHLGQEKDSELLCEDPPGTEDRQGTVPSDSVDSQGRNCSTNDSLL

[4] = subcutaneous, 30 minutes before 0.01% histamine dihydrochloride spray, Litchfield-Wilcoxon
[5] = concentration producing 50% relaxation of contracted bronchial muscle, 10^-5 g/ml histamine dihydrochloride, guinea pig trachea, 37° C
[6] = concentration producing 50% relaxation of contracted bronchial muscle, 10^-5 g/ml methacholine chloride, guinea pig trachea, 37° C
[7] = subcutaneous, 30 minutes before methacholine chloride spray, Litchfield-Wilcoxon

`CC(Cc1ccc(O)cc1)NCC(O)c1ccc(O)c(NC=O)c1` (single isomer, unassigned) [Example 8, 3-formylamino-4-hydroxy-α-[N-(1-methyl-2-p-hydroxyphenylethyl)aminomethyl]benzyl alcohol [A] . 1/2 fumarate] was tested, and the EC50 [1] was 0.00094 µg/mL, the Anti-histamine relative activity [1] was 0.35 and the EC50 [2] was 0.011 µg/mL. For the same compound, the “Anti-methacholine Chloride relative activity” value [2] was 0.52, the ED50 (Histamine-asthma; [4]) was 1.9 µg/kg and the ED50 [3] was 2.6 µg/kg. The “β1-action ED50bpm” value (β1) was 0.26 µg/kg and the “Selectivity (ratio of β1/β2)” value (β1 /β2) was 8.38.
With `COc1ccc(CC(C)NCC(O)c2ccc(O)c(NC=O)c2)cc1` (single isomer, unassigned) [Example 22, 3-formylamino-4-hydroxy-α-[N-(1-methyl-2-p-methoxyphenylethyl)aminomethyl]benzyl alcohol [A] . 1/2 fumarate] the EC50 [1] was 0.00046 µg/mL, the Anti-histamine relative activity [1] was 0.17 and the EC50 [2] was 0.0046 µg/mL. For the same compound, the “Anti-methacholine Chloride relative activity” value [2] was 0.22, the ED50 (Histamine-asthma) was 3.6 µg/kg and the “β1-action ED50bpm” value (β1) was 0.72 µg/kg.
`CC(=O)Nc1cc(C(O)CNC(C)C)ccc1O.Cl` (stereo not drawn) [3-acetylamino-4-hydroxy-α-(isopropylaminomethyl)benzyl alcohol hydrochloride] was tested, and the EC50 [1, 5] was 1 µg/mL, the Anti-histamine relative activity [1] was 370 and the EC50 [2, 6] was > 100 µg/mL. The “Anti-methacholine Chloride relative activity” value [2] was > 4760.
`CC(CCc1ccc(O)cc1)NCC(O)c1ccc(O)c(NC=O)c1` (stereo not drawn) [Example 19, 3-formylamino-4-hydroxy-α-[N-(1-methyl-3-p-hydroxyphenylpropyl)aminomethyl] benzyl alcohol . 1/2 fumarate . mono-hydrate] was tested, and the EC50 [1, 5] was 0.00086 µg/mL, the Anti-histamine relative activity [1] was 0.32 and the EC50 [2, 6] was 0.0089 µg/mL. The “Anti-methacholine Chloride relative activity” value [2] was 0.42, the ED50 (Histamine-asthma; [4]) was 1.4 µg/kg and the ED50 [3, 7] was 8.1 µg/kg. For the same compound, the “β1-action ED50bpm” value (β1) was 0.59 µg/kg and the “Selectivity (ratio of β1/β2)” value (β1 /β2) was 12.
`CC(C)NCC(O)c1ccc(O)c(N)c1` (stereo not drawn) [Known compound A, 3-amino-4-hydroxy-α-isopropylaminomethylbenzyl alcohol] showed an EC50 [1] of 0.3 µg/mL (≈ 1.43 µM), an Anti-histamine relative activity [1] of 111 and an EC50 [2] of 3 µg/mL (≈ 14.3 µM). For the same compound, the “Anti-methacholine Chloride relative activity” value [2] was 143.
With `CCOC(=O)Nc1cc(C(O)CNC(C)C)ccc1O` (stereo not drawn) [Known compound B, 3-ethoxycarbonylamino-4-hydroxy-α-isopropylaminomethylbenzyl alcohol] the EC50 [1, 5] was 5 µg/mL (≈ 17.7 µM), the Anti-histamine relative activity [1] was 185 and the EC50 [2, 6] was > 100 µg/mL. The “Anti-methacholine Chloride relative activity” value [2] was > 4760.
For `CNC(=O)Nc1cc(C(O)CNC(C)C)ccc1O` (stereo not drawn) [Known compound C, 4-hydroxy-3-(N'-methylureido)-α-isopropylaminomethylbenzyl alcohol], the EC50 [1, 5] was 0.09 µg/mL (≈ 0.337 µM), the Anti-histamine relative activity [1] was 3.33 and the EC50 [2, 6] was > 100 µg/mL. The “Anti-methacholine Chloride relative activity” value [2] was > 4760.
`CC(C)(C)NCC(O)c1ccc(O)c(CO)c1` (stereo not drawn) [Known compound D, 4-hydroxy-3-hydroxymethyl-α-tert-butylaminomethylbenzyl alcohol] gave an EC50 [1, 5] of 0.01 µg/mL (≈ 0.0418 µM), an Anti-histamine relative activity [1] of 3.7 and an EC50 [2, 6] of 0.096 µg/mL (≈ 0.401 µM). The “Anti-methacholine Chloride relative activity” value [2] was 4.57, the ED50 (β2) was 1.4 µg/kg and the “β1-action ED50bpm” value (β1) was 7.0 µg/kg. The “Selectivity (ratio of β1/β2)” value (β1 /β2) was 5.0.
`COc1cc(C[C@@H]2NCCc3cc(O)c(O)cc32)cc(OC)c1OC` [Known compound E, l-1-(3,4,5-trimethoxybenzyl)-6,7-dihydroxy 1,2,3,4-tetrahydroisoquinoline hydrochloride] was tested, and the EC50 [1, 5] was 0.0027 µg/mL, the Anti-histamine relative activity [1] was 1.0 and the EC50 [2, 6] was 0.021 µg/mL. For the same compound, the “Anti-methacholine Chloride relative activity” value [2] was 1.0, the ED50 (Histamine-asthma; [4]) was 11.3 µg/kg and the ED50 [3, 7] was 12.4 µg/kg.
`CC(C)NCC(O)c1ccc(O)c(O)c1` (stereo not drawn) [Known compound F, α-(isopropylaminomethyl) protocatechuyl alcohol] was tested, and the EC50 [1, 5] was 0.0055 µg/mL (≈ 0.026 µM), the Anti-histamine relative activity [1] was 2.04 and the EC50 [2, 6] was 0.028 µg/mL (≈ 0.133 µM). The “Anti-methacholine Chloride relative activity” value [2] was 1.33, the ED50 (Histamine-asthma; [4]) was 15.7 µg/kg and the ED50 [3, 7] was 11.2 µg/kg.
